This test deals with T1, Adenosine receptor A3 (Homo sapiens, UniProt P0DMS8).
T1 sequence (P0DMS8 whole entry): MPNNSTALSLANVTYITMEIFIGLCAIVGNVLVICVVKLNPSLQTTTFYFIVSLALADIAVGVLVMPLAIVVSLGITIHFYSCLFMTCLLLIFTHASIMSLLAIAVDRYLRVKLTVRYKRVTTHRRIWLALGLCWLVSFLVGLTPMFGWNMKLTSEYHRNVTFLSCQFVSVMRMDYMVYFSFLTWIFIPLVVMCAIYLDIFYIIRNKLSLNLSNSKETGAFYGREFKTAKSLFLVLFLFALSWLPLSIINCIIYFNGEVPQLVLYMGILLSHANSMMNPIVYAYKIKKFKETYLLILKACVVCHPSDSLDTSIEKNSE
Kind of test: Antagonist activity at human adenosine A3 receptor. Type of test: functional.

On to `Cn1cc2c(nc(NC(=O)N[n+]3ccccc3)n3nc(-c4ccco4)nc23)n1`, for which the affinity corresponds to a Ki of 0.01 nM. Regarding `O=C(Cc1ccccc1)Nc1nc2nn(CCc3ccccc3)cc2c2nc(-c3ccc(Cl)cc3)nn12`, the affinity corresponds to a Ki of 8.48 nM.

The values above are taken from ChEMBL document CHEMBL1770052, “Pharmacophore elucidation for a new series of 2-aryl-pyrazolo-triazolo-pyrimidines as potent human A3 adenosine receptor antagonists” (Bioorg Med Chem Lett, 2011).
